The target in one experiment is T1, JNK1α1 (Homo sapiens, UniProt P45983).
T1 construct: catalytic domain containing amino acids 1-364 and N-terminal hexahistidine tag; hexahistidine (His6) (N); made in house; host or cells: E. coli BL21 (DE3)
T1 sequence (P45983 1-364): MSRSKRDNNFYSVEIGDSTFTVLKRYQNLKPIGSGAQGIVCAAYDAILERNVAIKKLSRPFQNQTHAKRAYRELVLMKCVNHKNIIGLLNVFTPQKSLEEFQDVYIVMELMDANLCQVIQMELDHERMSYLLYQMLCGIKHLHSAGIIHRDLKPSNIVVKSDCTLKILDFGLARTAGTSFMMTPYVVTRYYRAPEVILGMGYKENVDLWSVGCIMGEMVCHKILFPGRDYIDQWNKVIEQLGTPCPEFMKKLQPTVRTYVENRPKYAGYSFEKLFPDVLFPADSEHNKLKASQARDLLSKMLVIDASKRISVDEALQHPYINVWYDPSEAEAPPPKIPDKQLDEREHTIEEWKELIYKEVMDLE
Briefly: Coupled spectrophotometric (PK/LDH) JNK1α1 assay: % inhibition and Ki determination. Particulars: @1 uM; read-out: % Inhibition JNK-1. It is filed as biochemical. The essentials:
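Initial rates were taken from the absorbance decrease at 340 nm at 30° C. Ki was fitted with a tight-binding model over 11 concentrations (top 100 μM); single-point inhibition was tested at 1 or 10 μM.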
Take `O=C(N[C@H](CO)Cc1ccccc1)c1ccc2cnc(NC3CCC3)nc2c1` [Example 420, N-[(1S)-1-benzyl-2-hydroxyethyl]-2-(cyclobutylamino)quinazoline-7-carboxamide]: the inhibition at 1 µM was 21%.
The same measure, in the same setting: next, `Cc1cc(NC(=O)c2cccc3cnc(N[C@H]4CC[C@H](O)CC4)nc23)n(-c2ccccn2)n1` [Example 325, 2-[(trans-4-hydroxycyclohexyl)amino]-N-(3-methyl-1-pyridin-2-yl-1H-pyrazol-5-yl)quinazoline-8-carboxamide]: 9%.
On the same count and under the same terms, for `CNC(=O)[C@H](C)NC(=O)c1cccc2cnc(N[C@H]3CC[C@H](O)CC3)nc12` [Example 516, 2-[(trans-4-hydroxycyclohexyl)amino]-N-[(1S)-1-methyl-2-(methylamino)-2-oxoethyl]quinazoline-8-carboxamide] the value was 26%; for `CC(C)Nc1ncc2ccc(C(=O)N[C@@H](C)CO)cc2n1` [Example 434, N-[(1S)-2-hydroxy-1-methylethyl]-2-(isopropylamino)quinazoline-7-carboxamide], 15%; for `COCCOc1ccc2cnc(N[C@H]3CC[C@H](O)CC3)nc2c1` [Example 272, trans-4-{[7-(2-methoxyethoxy)quinazolin-2-yl]amino)cyclohexanol], 63%.
The same measure, in the same setting: for `CC(C)Nc1ncc2ccc(C(=O)NC3(CO)CCCC3)cc2n1` [Example 423, N-[1-(hydroxymethyl)cyclopentyl]-2-(isopropylamino)quinazoline-7-carboxamide] the value was 15%.
For `CCn1cc(CNC(=O)c2cccc3cnc(N[C@H]4CC[C@H](O)CC4)nc23)cn1` [Example 489, N-[(1-ethyl-1H-pyrazol-4-yl)methyl]-2-[(trans-4-hydroxycyclohexyl)amino]quinazoline-8-carboxamide], the inhibition at 1 µM came out at 16%.
Turning to `CC(=O)N1CCC(NC(=O)c2cccc3cnc(N[C@H]4CC[C@H](O)CC4)nc23)CC1` [Example 519, N-(1-acetylpiperidin-4-yl)-2-[(trans-4-hydroxycyclohexyl)amino]quinazoline-8-carboxamide], the inhibition at 1 µM came out at 9%.

Staying with this experiment, now noted: @10 uM; read-out: % Inhibition JNK-1.
As to `O=C(NCc1ccc(C2CC2)cn1)c1cccc2cnc(N[C@H]3CC[C@H](O)CC3)nc12` [Example 518, N-[(5-cyclopropylpyridin-2-yl)methyl]-2-[(trans-4-hydroxycyclohexyl)amino]quinazoline-8-carboxamide], the inhibition at 10 µM was 60%.
Same read-out and setting: for `CC(C)(CO)NC(=O)c1ccc2cnc(NC3CCC3)nc2c1` [Example 439, 2-(cyclobutylamino)-N-(2-hydroxy-1,1-dimethylethyl)quinazoline-7-carboxamide] the value was 44%; for `CN1CCN(C)C(COc2cccc3cnc(N[C@H]4CC[C@H](O)CC4)nc23)C1` (stereo partly drawn) [Example 264, trans-4-({8-[(1,4-dimethylpiperazin-2-yl)methoxy]quinazolin-2-yl}amino)cyclohexanol], 46%.

The same experiment, now with this note: JNK-1.
The compound `O=C(NC1(c2cccnc2)CC1)c1cccc2cnc(N[C@H]3CC[C@H](O)CC3)nc12` [Example 464, 2-[(trans-4-hydroxycyclohexyl)amino]-N-(1-pyridin-3-ylcyclopropyl)quinazoline-8-carboxamide] displayed an inhibition constant Ki of 685 nM.
The same measure, in the same setting: for `O=C(NCC(O)c1ccccc1)c1cccc2cnc(N[C@H]3CC[C@H](O)CC3)nc12` (stereo partly drawn) [Example 443, 2-[(trans-4-hydroxycyclohexyl)amino]-N-(2-hydroxy-2-phenylethyl)quinazoline-8-carboxamide] the value was 104 nM.
The same measure, in the same setting: next, `COc1cccc2cnc(N[C@H]3CC[C@H](O)CC3)nc12` [Example 150]: 359 nM.
Still for that read-out and setting: for `O=C(CN1Cc2ccccc2C1=O)Nc1cc2cc(-c3cn[nH]c3)ccc2cn1` [Example 25, 2-(1-oxo-1,3-dihydro-2H-isoindol-2-yl)-N-[6-(1H-pyrazol-4-yl)isoquinolin-3-yl]acetamide] the value was 14 nM; for `O=C(CNC(=O)c1ccc(O)c(Cl)c1)Nc1cc2cc(-c3cn[nH]c3)ccc2cn1` [Example 56, 3-chloro-4-hydroxy-N-(2-oxo-2-{[6-(1H-pyrazol-4-yl)isoquinolin-3-yl]amino}ethyl)benzamide], 17 nM.
With `O=C(NC1CCOC1)c1cccc2cnc(N[C@H]3CC[C@H](O)CC3)nc12` (stereo partly drawn) [Example 111, 2-[(trans-4-hydroxycyclohexyl)amino]-N-(tetrahydrofuran-3-yl)quinazoline-8-carboxamide], affinity was put at a Ki of 142 nM. This Ki is about 8.4-fold higher than that of the compound before.
Same read-out and setting: next, `O=C(CNC(=O)c1ccccc1)Nc1cc2cc(-c3cn[nH]c3)ccc2cn1` [Example 9, N-(2-oxo-2-{[6-(1H-pyrazol-4-yl)isoquinolin-3-yl]amino)ethyl)benzamide]: 17 nM.
On to `O=C(NCCCn1cccn1)c1ccc2cnc(N[C@H]3CC[C@H](O)CC3)nc2c1` [Example 339, 2-[(trans-4-hydroxycyclohexyl)amino]-N-[3-(1H-pyrazol-1-yl)propyl]quinazolin-7-carboxamide], for which the affinity corresponds to a Ki of 801 nM.
Still for that read-out and setting: for `O[C@H]1CC[C@H](Nc2ncc3cccc(OCCc4cn[nH]c4)c3n2)CC1` [Example 245, trans-4-({8-[2-(1H-pyrazol-4-yl)ethoxy]quinazolin-2-yl}amino)cyclohexanol] the value was 239 nM; for `O=C(CC(c1ccccc1)c1ccccc1)Nc1cc2cc(-c3cn[nH]c3)ccc2cn1` [Example 55, 3,3-diphenyl-N-[6-(1H-pyrazol-4-yl)isoquinolin-3-yl]propanamide], 5 nM.
On the same count and under the same terms, for `COc1ccnc(NC(=O)c2ccc3cnc(N[C@H]4CC[C@H](O)CC4)nc3c2)c1` [Example 361, 2-[(trans-4-hydroxycyclohexyl)amino]-N-(4-methoxypyridin-2-yl)quinazoline-7-carboxamide] the value was 1810 nM; for `CNC(=O)COc1c(C)ccc2cnc(N[C@H]3CC[C@H](O)CC3)nc12` [Example 206, 2-({2-[(trans-4-hydroxycyclohexyl)amino]-7-methylquinazolin-8-yl}oxy) N-methylacetamide], 495 nM.
Same read-out and setting: next, `CN(C)CCOc1ccc(-c2cccc3cnc(N[C@H]4CC[C@H](O)CC4)nc23)cc1` [Example 201, trans-4-[(8-{4-[2-(dimethylamino)ethoxy]phenyl}quinazolin-2-yl)amino]cyclohexanol]: 70 nM; `Cc1ccc2c(c1)CCC2C(=O)Nc1cc2cc(-c3cn[nH]c3)ccc2cn1` (stereo not shown) [Example 21, 5-methyl-N-[6-(1H-pyrazol-4-yl)isoquinolin-3-yl]indane-1-carboxamide]: more than 50 nM.
Regarding `CC(C)C[C@@H](CO)NC(=O)c1ccc2cnc(NC3CCCC3)nc2c1` [Example 390, 2-(cyclopentylamino)-N-[(1S)-1-(hydroxymethyl)-3-methylbutyl]quinazoline-7-carboxamide], the affinity corresponds to a Ki of 333 nM.
In turn, `C[C@@H](NC(=O)c1ccc2cnc(N[C@H]3CC[C@H](O)CC3)nc2c1)c1ccccc1` [Example 87, 2-[(trans-4-hydroxycyclohexyl)amino]-N-[(1R)-1-phenylethyl]quinazoline-7-carboxamide] had a Ki of 60 nM.
For the compound `COc1ccccc1-c1cccc2cnc(N[C@H]3CC[C@H](O)CC3)nc12` [Example 204, trans-4-{(8-(2-methoxyphenyl)quinazolin-2-yl]amino} cyclohexanol], the Ki came out at 303 nM.
Same read-out and setting: for `CS(=O)(=O)N[C@H]1CC[C@H](Nc2ncc3cccc(C(=O)N[C@@H]4CCC[C@H]4O)c3n2)CC1` (relative stereo) [Example 137, N-[(trans)-2-hydroxycyclopentyl]-2-({trans-4-[(methylsulfonyl)amino]cyclohexyl}amino)quinazoline-8-carboxamide] the value was 263 nM.
The same measure, in the same setting: next, `CCC(=O)N[C@H]1CC[C@H](Nc2ncc3cccc(OC4CCOC4)c3n2)CC1` (stereo partly drawn) [Example 185, N-(trans-4-{[8-(tetrahydrofuran-3-yloxy)quinazolin-2-yl]amino}cyclohexyl)propanamide]: 885 nM.
The same measure, in the same setting: for `CC(C)[C@@H](CO)NC(=O)c1ccc2cnc(NC3CCCC3)nc2c1` [Example 407, 2-(cyclopentylamino)-N-[(1S)-1-(hydroxymethyl)-2-methylpropyl]quinazoline-7-carboxamide] the value was 735 nM.
`O=C(NCC1(O)CCC1)c1cccc2cnc(N[C@H]3CC[C@H](O)CC3)nc12` [Example 129, N-[(1-hydroxycyclobutyl)methyl]-2-[(trans-4-hydroxycyclohexyl)amino]quinazoline-8-carboxamide] registered a Ki of 130 nM.
Same read-out and setting: for `O=C(Cc1ccc2ccccc2c1)Nc1cc2cc(-c3cn[nH]c3)ccc2cn1` [Example 5, 2-(2-naphthyl)-N-[6-(1H-pyrazol-4-yl)isoquinolin-3-yl]acetamide] the value was 79 nM; for `CC(C)C(CO)NC(=O)c1cccc2cnc(N[C@H]3CC[C@H](O)CC3)nc12` (stereo partly drawn) [Example 450, 2-[(trans-4-hydroxycyclohexyl)amino]-N-[1-(hydroxymethyl)-2-methylpropyl]quinazoline-8-carboxamide], 144 nM.
The same measure, in the same setting: for `CC(=O)N1CC[C@@H](NC(=O)c2ccc3cnc(N[C@H]4CC[C@H](O)CC4)nc3c2)C1` [Example 371, N-[(3R)-1-acetylpyrrolidin-3-yl]-2-[(trans-4-hydroxycyclohexyl)amino]quinazoline-7-carboxamide] the value was 2490 nM.
Still for that read-out and setting: next, `CC(C)C[C@@H](CO)NC(=O)c1ccc2cnc(N[C@H]3CC[C@H](O)CC3)nc2c1` [Example 375, 2-[(trans-4-hydroxycyclohexyl)amino]-N-[(1S)-1-(hydroxymethyl)-3-methylbutyl]quinazoiine-7-carboxamide]: 107 nM; `COc1ccccc1CC(=O)Nc1cc2cc(-c3cn[nH]c3)ccc2cn1` [Example 53, 2-(2-methoxyphenyl)-N-[6-(1H-pyrazol-4-yl)isoquinolin-3-yl]acetamide]: 21 nM.
